Source: ChEMBL document CHEMBL1150556, “Tetraazaacenaphthene, tetraazaphenalene and 1,3,4-thiadiazole derivatives as potential leishmanicides” (1997)

tested on: Cricetulus griseus; assay: TThe in vivo leishmanicidal activity of compound was determined against amastigotes of Leishmania donovani in golden hamsters (Mesocricetus auratus) at dose of 50 mg/kg for 5 days; Toxic; type: functional, organism-based; parameters: dose 50 mg/kg; settings: not given

For N=c1c2c(=O)n(-c3ccc(F)cc3)c(=S)n3c2n(c(=S)n1-c1ccc(F)cc1)CC3, the inhibition was “Toxic”.

tested on: Leishmania donovani; assay: In vitro leishmanicidal activity of compound was determined by measuring 3H thymidine incorporation in promastigotes of Leishmania donovani at concentration of 100 uM; type: functional; settings: not given

Compound N=C(N)c1ccc(OCCCCCOc2ccc(C(=N)N)cc2)cc1 [PENTAMIDINE] has an inhibition at 100 µM of 100%.

tested on: Leishmania donovani; assay: In vivo leishmanicidal activity determined against amastigotes of Leishmania donovani in golden hamsters; settings: Mesocricetus auratus; dose or concentration not given here

In the case of Sodium stibogluconate, the inhibition was 100%.

tested on: Leishmania donovani; assay: In vitro leishmanicidal activity determined by measuring 3H thymidine incorporation in promastigotes of Leishmania donovani; type: functional; parameters: concentration or dose not given beside the values; settings: not given

Point of comparison: N=c1c2c(=O)n(-c3ccccc3)c(=S)n3c2n(c(=S)n1-c1ccccc1)CC3, Inhibition 99.3%. Against it:
- CCn1c(=N)c2c(=O)n(CC)c(=S)n3c2n(c1=S)CC3 — lower, 20%
- CCO/C(O)=C(\C1=NCCN1)c1nn2cc(-c3ccc(Br)cc3)nc2s1 — lower, 31%
- O=c1c2c(=O)n(-c3ccccc3)c(=S)n3c2n(c(=S)n1-c1ccccc1)CC3 — lower, 85%
- O=c1c2c(=O)n(-c3ccc(F)cc3)c(=S)n3c2n(c(=S)n1-c1ccc(F)cc1)CC3 — lower, 50%
- CCO/C(O)=C(\C1=NCCN1)c1nnc(N)s1 — lower, 0%
- CCOC(=O)C(=C1SCCCS1)c1nnc(N)s1 — lower, 0%
- CCn1c(=N)c2c(=O)n(CC)c(=S)n3c2n(c1=S)CCC3 — lower, 99.2%
- CCO/C(O)=C(\C1=NCCN1)c1nn2cc(-c3ccc(Cl)cc3)nc2s1 — lower, 40%
- Cc1ccccc1-n1c(=O)c2c(=O)n(-c3ccccc3C)c(=O)n3c2n(c1=O)CC3 — lower, 93%
- CCn1c(=O)c2c(=O)n(CC)c(=O)n3c2n(c1=O)CCC3 — lower, 58%
- CCO/C(O)=C(\C1=NCCCN1)c1nnc(N)s1 — lower, 73%
- N=c1c2c(=O)n(-c3ccc(F)cc3)c(=S)n3c2n(c(=S)n1-c1ccc(F)cc1)CC3 — the same, 99.3%
- CCn1c(=O)c2c(=O)n(CC)c(=S)n3c2n(c1=S)CC3 — lower, 76%
- Cc1ccccc1-n1c(=N)c2c(=O)n(-c3ccccc3C)c(=O)n3c2n(c1=O)CC3 — lower, 7%
- CCOC(=O)C(=C1SCCS1)c1nnc(N)s1 — lower, 0%
- N#CC(=C1SCCS1)c1nnc(N)s1 — lower, 18%

tested on: not listed separately; assay: In vivo leishmanicidal activity determined against amastigotes of Leishmania donovani in golden hamsters; type: functional, Mesocricetus auratus; parameters: concentration or dose not given beside the values; settings: not given

Point of comparison: O=c1c2c(=O)n(-c3ccc(F)cc3)c(=S)n3c2n(c(=S)n1-c1ccc(F)cc1)CC3, Inhibition 0%. Against it:
- CCn1c(=N)c2c(=O)n(CC)c(=S)n3c2n(c1=S)CC3 — higher, 71.2%
- CCO/C(O)=C(\C1=NCCN1)c1nn2cc(-c3ccc(Br)cc3)nc2s1 — the same, 0%
- O=c1c2c(=O)n(-c3ccccc3)c(=S)n3c2n(c(=S)n1-c1ccccc1)CC3 — higher, 81.3%
- CCn1c(=N)c2c(=O)n(CC)c(=S)n3c2n(c1=S)CCC3 — higher, 50.7%
- CCO/C(O)=C(\C1=NCCN1)c1nn2cc(-c3ccc(Cl)cc3)nc2s1 — the same, 0%
- Cc1ccccc1-n1c(=O)c2c(=O)n(-c3ccccc3C)c(=O)n3c2n(c1=O)CC3 — the same, 0%
- CCn1c(=O)c2c(=O)n(CC)c(=O)n3c2n(c1=O)CCC3 — the same, 0%
- N=c1c2c(=O)n(-c3ccccc3)c(=S)n3c2n(c(=S)n1-c1ccccc1)CC3 — higher, 78.6%
- CCO/C(O)=C(\C1=NCCCN1)c1nnc(N)s1 — higher, 44.7%
